Measured values as given in patent publication US20170119824A1, “A METHOD FOR THE TREATMENT OF GLIOBLASTOMA WITH WHARTON JELLY-MESENCHYMAL STEM CELLS (WJ-MSC) DERIVED FROM HUMAN UMBILICAL CORD” (priority 2014, published 2017).

Tested on: glioblastoma tumor sample collected from patient
Test: Oncoprint explant tumor culture model, drug sensitivity test with H&E, Ki67 and caspase staining
Format: cell-based, human
Conditions: glioma tumor samples in vitro, explant culture in artificial tumor microenvironment
Source text: According to one embodiment herein, Ocoprint® an explants tumor culture model to identify the anti-tumor effect of commonly used chemotherapeutics agents as well as Wharton's jelly derived mesenchymal stem cells on gliomas samples. In the laboratory, a tumor microenvironment similar to the body or physiological environment is created artificially in a dish. The tumor sample collected from patient is placed in this micro-environment in dish. Different anticancer agents including the mesenchymal stem cells derived from umbilical cord are applied on the tumor in the micro-environment. This mimics the application of these anti-cancer agents against the tumor when the tumor is in the human body. Simultaneously a control sample is maintained without any treatment or application of anti-cancer agents. After a specific treatment time or incubation the tumor samples are collected from the microenvironment and are subjected to a set of laboratory tests. […] The tests also reveal that the anti-cancer agents are able to kill tumor cells, reduce the number of tumor cells or limit the growth of tumor cells or the anti-cancer agent is converting the aggressively growing tumor cells to a programmed cell death mode.
The tests which are applied for testing effect of anti-cancer agents on the tumor are 1) Hematoxylin and eosin staining (H & E staining), 2) Ki67 is staining and 3) Caspase staining.
The Ki67 staining indicates the growth pattern of tumor cells.
According to one embodiment herein, Ocoprint® an explants tumor culture model to identify the anti-tumor effect of commonly used chemotherapeutics agents as well as Wharton's jelly derived mesenchymal stem cells on glioma's samples. In the laboratory, a tumor microenvironment similar to the body or physiological environment is created artificially in a dish. The tumor sample collected from the patient is placed in this micro-environment in dish. Different anticancer agents including the mesenchymal stem cells derived from umbilical cord are applied on the tumor in the micro-environment. […]

Oncoprint sensitivity report: response of glioma samples (responders / non-responders)	Compound
responded	O=C1CCC(N2C(=O)c3ccccc3C2=O)C(=O)N1 (stereo not drawn) [Thalidomide]
have not responded	CNC(=O)c1cc(Oc2ccc(NC(=O)Nc3ccc(Cl)c(C(F)(F)F)c3)cc2)ccn1 [sorafenib]
responded	Avastin: anti-cancer agent applied to the glioblastoma tumor
